# From publication PMC12267471, “Discovery of natural scaffolds as HER2 inhibitors for breast cancer: virtual screening, molecular dynamics, and biological characterization with selectivity profiling” (Scientific Reports, 2025)
# Assays:
# [1] = tested on: SKBR3 cells; assay: MTT proliferation assay, SKBR3; type: cell-based, human; details: Homo sapiens, SK-BR-3
# [2] = tested on: BT-474 cells; assay: Wound healing assay, BT-474; type: cell-based; details: Homo sapiens
# Method: (§1) In a sterile flat-bottom 24-well plate, SKBR3 and BT-474 breast cancer cells were plated at a density of 1 × 10^5 cells/well. […] Wounds were then inflicted across each cell monolayer using a sterile 200 µL pipette tip. Media was aspirated, and cells were washed twice with PBS to remove floating cells and cell debris. Fresh serum-free media was placed up against the well wall to cover the bottom of the well and prevent further cell detachment. Incubation of cells was resumed for five hours at 37 °C in a humidified CO2 incubator. Subsequently, the media were substituted with fresh ones containing various doses of liquiritin, oroxin B, or DMSO as a vehicle control (3 replicates/group) along with EGF (100 ng/mL) as a scattering factor. Wound closure was microscopically monitored in vehicle-treated control wells, and the time frame for wound closure was determined to be 72 h. Before the closure of wounds in the vehicle-treated control wells, the media were removed, cells were washed with PBS and completely fixed using cold methanol for 20 min at 4 °C. An inverted VistaVision microscope was used to take pictures of the wounds monitored at zero and 72 h with a VistaVision Still camera (VWR, Radnor, PA).
# (§2) Results were expressed as a percentage of cell migration according to the following Equation[16]: [drawing 2]
# (§3) Where Tt is the wound thickness in treatment wells, TDMSO is the thickness of the wound in control wells treated by DMSO, and Tº is the thickness of the wound at zero time. Wound thickness was calculated in three or more randomly selected fields per treatment group.
# [3] = tested on: SKBR3 cells; assay: Wound healing assay, SKBR3; type: cell-based; details: Homo sapiens, SK-BR-3
# Method: as §1, §2, §3
# [4] = tested on: SKBR3 cells; assay: Annexin V-FITC/PI apoptosis detection, SKBR3; type: cell-based, human; details: SKBR3, 6.4 µM, 48 h
# Method: To evaluate the induction of apoptosis, the translocation of phosphatidylserine to the outer cell membrane, as a hallmark of early apoptosis, was detected by the binding of annexin V, using the Annexin V-FITC Early Apoptosis Detection Kit (BD BioVision). Cells were seeded at a density of 5 × 10^5 cells per 100 mm culture plate and allowed to adhere overnight. […] At the end of the treatment period, cells were harvested by trypsinization, washed twice with ice-cold PBS, and resuspended in 500 µL of chilled 1X Annexin V Binding Buffer. To each sample, 5 µL of Annexin V-FITC conjugate and 5 µL of propidium iodide (PI, 50 µg/mL) were added. The cell suspensions were incubated for 5 minutes on ice in the dark to allow for staining.
# Flow cytometric analysis was performed using excitation at 488 nm and emission at 530 nm for FITC detection (FL1 channel) and phycoerythrin emission settings for PI detection (FL2 channel). Data acquisition and analysis were facilitated by Cell Quest software (BD Biosciences), with dot plots divided into four quadrants to distinguish different cell populations: lower left (LL) for viable, non-apoptotic cells (negative for both annexin V and PI); lower right (LR) for early apoptotic cells (annexin V-positive, PI-negative); upper left (UL) for dead or necrotic cells (PI-positive, annexin V-negative); and upper right (UR) for late apoptotic cells (double-positive). All assays were conducted in triplicate to ensure reliability and reproducibility.
# [5] = molecular target: ALK (Homo sapiens, UniProt Q9UM73); assay: SelectScreen Z'-LYTE kinase profiling; type: biochemical
# Method: (§4) Liquiritin was screened at 0.1 µM dose against a panel of 15 human kinases using SelectScreen® kinase profiling services offered by ThermoFisher Scientific™ (Madison, WI, USA). The percent inhibition of Liquiritin was assessed against each kinase in an automated high-throughput screening system using the time-resolved fluorescence resonance energy transfer Z´-LYTE™ kinase assay. Technology overview, protocols, and assay conditions are accessible at https://x.gd/UgBBB.
# [6] = molecular target: EGFR (ErbB1) (Homo sapiens, UniProt P00533); assay: SelectScreen Z'-LYTE kinase profiling; type: biochemical
# EGFR (ErbB1), sequence (P00533 25-1210): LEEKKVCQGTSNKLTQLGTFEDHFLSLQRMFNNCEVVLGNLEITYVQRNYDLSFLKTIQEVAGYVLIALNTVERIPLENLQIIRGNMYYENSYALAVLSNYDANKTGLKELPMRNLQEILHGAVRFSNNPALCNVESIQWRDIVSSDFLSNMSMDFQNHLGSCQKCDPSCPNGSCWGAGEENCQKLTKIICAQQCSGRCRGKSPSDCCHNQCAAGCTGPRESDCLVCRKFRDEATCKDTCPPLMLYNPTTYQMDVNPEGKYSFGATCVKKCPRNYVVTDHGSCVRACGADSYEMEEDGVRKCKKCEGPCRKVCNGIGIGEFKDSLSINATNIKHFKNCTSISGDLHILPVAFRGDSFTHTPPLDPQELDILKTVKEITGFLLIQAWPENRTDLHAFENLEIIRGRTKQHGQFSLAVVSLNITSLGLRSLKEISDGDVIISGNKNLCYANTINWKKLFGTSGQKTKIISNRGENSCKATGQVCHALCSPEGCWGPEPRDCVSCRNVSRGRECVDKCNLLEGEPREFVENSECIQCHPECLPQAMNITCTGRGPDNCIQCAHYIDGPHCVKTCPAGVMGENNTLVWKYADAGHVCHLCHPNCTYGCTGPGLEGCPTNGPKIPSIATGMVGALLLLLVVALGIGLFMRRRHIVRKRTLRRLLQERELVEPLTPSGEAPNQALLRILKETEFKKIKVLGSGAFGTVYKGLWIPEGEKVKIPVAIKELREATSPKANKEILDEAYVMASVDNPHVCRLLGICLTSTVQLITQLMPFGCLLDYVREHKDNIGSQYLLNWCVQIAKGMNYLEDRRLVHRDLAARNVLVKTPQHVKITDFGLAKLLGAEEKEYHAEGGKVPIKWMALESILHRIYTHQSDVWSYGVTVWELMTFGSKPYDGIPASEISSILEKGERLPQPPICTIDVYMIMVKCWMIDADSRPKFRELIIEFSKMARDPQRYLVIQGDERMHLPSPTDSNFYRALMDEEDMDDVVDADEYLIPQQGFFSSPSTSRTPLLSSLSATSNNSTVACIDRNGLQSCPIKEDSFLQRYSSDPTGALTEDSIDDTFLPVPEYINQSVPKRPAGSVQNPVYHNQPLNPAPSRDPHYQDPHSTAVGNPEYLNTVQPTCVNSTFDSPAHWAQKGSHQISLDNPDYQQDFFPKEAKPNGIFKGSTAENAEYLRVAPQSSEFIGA
# Method: as §4
# [7] = molecular target: ERBB2 (HER2) (Homo sapiens, UniProt P04626); assay: SelectScreen Z'-LYTE kinase profiling; type: biochemical
# ERBB2 (HER2), sequence (P04626 23-1255): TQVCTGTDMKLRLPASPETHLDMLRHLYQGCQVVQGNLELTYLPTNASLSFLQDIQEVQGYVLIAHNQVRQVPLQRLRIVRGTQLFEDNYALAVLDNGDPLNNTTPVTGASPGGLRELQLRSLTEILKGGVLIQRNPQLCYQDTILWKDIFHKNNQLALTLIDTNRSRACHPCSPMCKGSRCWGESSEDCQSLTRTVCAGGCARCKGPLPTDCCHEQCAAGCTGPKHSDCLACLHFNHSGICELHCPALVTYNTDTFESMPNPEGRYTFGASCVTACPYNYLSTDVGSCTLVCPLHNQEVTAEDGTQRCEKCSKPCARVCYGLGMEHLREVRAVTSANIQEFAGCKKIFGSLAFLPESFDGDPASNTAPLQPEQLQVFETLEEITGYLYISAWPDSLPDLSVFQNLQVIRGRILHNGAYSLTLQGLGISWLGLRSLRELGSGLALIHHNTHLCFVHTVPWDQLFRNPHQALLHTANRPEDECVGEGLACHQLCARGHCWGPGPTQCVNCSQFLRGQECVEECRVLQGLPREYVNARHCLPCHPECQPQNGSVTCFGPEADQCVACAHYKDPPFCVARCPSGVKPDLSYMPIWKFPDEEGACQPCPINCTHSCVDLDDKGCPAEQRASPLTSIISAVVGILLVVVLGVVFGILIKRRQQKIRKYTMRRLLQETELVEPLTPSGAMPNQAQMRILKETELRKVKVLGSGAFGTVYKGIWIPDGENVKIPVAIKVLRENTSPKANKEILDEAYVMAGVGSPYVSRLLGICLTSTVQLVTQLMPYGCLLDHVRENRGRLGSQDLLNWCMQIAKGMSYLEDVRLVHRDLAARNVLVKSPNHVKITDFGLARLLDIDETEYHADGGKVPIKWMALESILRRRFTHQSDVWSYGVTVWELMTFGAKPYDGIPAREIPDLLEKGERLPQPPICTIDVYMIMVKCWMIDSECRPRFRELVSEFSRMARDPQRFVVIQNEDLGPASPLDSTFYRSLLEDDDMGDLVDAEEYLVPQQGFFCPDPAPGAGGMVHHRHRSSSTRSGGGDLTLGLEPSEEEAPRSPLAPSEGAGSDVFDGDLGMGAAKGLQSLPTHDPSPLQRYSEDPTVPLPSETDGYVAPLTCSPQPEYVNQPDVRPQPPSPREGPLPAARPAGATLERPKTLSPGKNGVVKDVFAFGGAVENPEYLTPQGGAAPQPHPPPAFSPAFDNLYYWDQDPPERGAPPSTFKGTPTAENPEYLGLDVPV
# Method: as §4
# [8] = molecular target: FGFR1 (Homo sapiens, UniProt P11362); assay: SelectScreen Z'-LYTE kinase profiling; type: biochemical
# Method: as §4
# [9] = molecular target: IGF1R (Homo sapiens, UniProt P08069); assay: SelectScreen Z'-LYTE kinase profiling; type: biochemical
# IGF1R, sequence (P08069 31-1367): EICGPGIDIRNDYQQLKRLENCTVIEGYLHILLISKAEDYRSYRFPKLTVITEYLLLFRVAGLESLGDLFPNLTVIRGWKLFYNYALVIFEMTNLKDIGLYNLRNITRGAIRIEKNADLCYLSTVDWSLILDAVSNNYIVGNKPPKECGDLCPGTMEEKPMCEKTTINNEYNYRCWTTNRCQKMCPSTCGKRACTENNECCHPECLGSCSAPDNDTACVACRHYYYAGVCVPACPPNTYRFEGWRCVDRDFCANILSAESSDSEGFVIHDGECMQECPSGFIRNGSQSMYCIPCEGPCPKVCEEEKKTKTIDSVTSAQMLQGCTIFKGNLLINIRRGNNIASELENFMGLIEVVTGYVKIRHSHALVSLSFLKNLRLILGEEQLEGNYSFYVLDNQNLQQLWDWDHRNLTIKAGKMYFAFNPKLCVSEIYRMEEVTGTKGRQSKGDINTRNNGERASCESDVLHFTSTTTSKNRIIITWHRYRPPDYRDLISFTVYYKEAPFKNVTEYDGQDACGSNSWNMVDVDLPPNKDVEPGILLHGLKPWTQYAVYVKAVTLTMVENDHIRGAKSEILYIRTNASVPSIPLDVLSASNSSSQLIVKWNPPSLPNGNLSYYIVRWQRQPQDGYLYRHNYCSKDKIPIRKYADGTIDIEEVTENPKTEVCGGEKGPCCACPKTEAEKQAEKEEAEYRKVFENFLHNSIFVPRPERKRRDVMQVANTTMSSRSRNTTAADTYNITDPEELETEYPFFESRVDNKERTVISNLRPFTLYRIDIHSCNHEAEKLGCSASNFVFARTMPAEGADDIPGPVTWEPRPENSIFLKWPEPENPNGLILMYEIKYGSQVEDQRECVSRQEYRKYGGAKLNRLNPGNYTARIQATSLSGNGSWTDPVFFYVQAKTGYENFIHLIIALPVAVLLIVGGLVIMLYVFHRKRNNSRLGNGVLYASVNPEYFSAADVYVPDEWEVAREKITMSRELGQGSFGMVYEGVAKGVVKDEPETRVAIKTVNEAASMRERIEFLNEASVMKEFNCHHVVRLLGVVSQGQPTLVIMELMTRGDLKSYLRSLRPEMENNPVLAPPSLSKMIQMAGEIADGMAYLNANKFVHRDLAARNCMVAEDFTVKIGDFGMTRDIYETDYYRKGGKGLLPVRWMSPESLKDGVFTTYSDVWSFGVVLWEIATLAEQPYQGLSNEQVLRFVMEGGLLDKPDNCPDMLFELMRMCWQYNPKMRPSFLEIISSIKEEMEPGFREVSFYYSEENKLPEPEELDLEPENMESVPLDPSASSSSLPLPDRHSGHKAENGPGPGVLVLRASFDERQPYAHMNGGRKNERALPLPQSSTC
# Method: as §4
# [10] = molecular target: KIT (Homo sapiens, UniProt P10721); assay: SelectScreen Z'-LYTE kinase profiling; type: biochemical
# Method: as §4
# [11] = molecular target: MET (cMet) (Homo sapiens, UniProt P08581); assay: SelectScreen Z'-LYTE kinase profiling; type: biochemical
# MET (cMet), sequence (P08581 25-1390): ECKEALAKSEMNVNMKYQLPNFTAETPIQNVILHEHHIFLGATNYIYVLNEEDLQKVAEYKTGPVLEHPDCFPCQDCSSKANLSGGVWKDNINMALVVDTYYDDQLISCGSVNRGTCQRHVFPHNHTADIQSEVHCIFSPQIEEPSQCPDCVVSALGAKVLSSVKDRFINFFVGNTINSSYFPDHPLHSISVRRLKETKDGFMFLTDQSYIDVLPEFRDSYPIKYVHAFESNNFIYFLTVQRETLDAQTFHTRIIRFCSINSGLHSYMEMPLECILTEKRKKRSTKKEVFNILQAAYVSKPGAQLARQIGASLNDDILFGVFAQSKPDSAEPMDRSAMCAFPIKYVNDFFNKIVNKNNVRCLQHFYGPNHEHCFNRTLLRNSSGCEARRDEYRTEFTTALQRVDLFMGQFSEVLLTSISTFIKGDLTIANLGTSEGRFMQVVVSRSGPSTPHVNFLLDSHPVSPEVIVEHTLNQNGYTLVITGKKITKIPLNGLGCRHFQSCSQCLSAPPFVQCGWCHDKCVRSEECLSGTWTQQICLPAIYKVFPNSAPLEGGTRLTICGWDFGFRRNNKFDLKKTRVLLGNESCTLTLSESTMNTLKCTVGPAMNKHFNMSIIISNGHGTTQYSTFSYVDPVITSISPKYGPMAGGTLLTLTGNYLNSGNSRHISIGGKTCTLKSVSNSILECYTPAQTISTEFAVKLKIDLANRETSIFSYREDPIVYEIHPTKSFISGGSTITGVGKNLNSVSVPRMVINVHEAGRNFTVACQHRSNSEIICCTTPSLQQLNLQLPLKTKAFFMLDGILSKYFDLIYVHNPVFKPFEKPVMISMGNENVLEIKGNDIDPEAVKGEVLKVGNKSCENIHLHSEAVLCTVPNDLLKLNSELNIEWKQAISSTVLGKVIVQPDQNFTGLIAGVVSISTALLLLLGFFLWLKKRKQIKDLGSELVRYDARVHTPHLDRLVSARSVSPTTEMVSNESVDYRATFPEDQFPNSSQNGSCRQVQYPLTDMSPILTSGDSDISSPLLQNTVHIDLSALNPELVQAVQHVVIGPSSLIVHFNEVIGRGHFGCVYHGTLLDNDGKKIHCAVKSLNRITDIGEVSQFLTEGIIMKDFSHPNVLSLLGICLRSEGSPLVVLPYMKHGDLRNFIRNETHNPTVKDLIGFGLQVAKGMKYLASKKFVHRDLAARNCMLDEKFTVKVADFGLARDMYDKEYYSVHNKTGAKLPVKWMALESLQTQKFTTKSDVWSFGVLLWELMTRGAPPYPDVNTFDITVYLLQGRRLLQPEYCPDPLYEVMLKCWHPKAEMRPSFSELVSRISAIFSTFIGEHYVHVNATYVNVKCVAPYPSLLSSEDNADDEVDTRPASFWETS
# Method: as §4
# [12] = molecular target: MST1R (RON) (Homo sapiens, UniProt Q04912); assay: SelectScreen Z'-LYTE kinase profiling; type: biochemical
# Method: as §4
# [13] = molecular target: PDGFRB (PDGFR beta) (Homo sapiens, UniProt P09619); assay: SelectScreen Z'-LYTE kinase profiling; type: biochemical
# Method: as §4
# [14] = molecular target: RET (Homo sapiens, UniProt P07949); assay: SelectScreen Z'-LYTE kinase profiling; type: biochemical
# Method: as §4
# [15] = molecular target: ROS1 (Homo sapiens, UniProt P08922); assay: SelectScreen Z'-LYTE kinase profiling; type: biochemical
# Method: as §4
smiles,measurement,setting,value
O=C1C[C@@H](c2ccc(O[C@@H]3O[C@H](CO)[C@@H](O)[C@H](O)[C@H]3O)cc2)Oc2cc(O)ccc21 [Liquiritin],IC50,"[1]; SKBR3, MTT, 48 h (Table S8), read-out: Cell growth inhibition IC50",6.4 µM
same,IC50,"[1]; SKBR3, Table S9, read-out: IC50",6.4 ± 0.2 µM
same,inhibition at 2 µM,"[2]; BT-474, 2 µM, 72 h, read-out: inhibition of cell migration",20%
same,inhibition at 3 µM,"[2]; BT-474, 3 µM, 72 h, read-out: inhibition of cell migration",25.6%
same,inhibition at 5 µM,"[2]; BT-474, 5 µM, 72 h, read-out: inhibition of cell migration",31.2%
same,inhibition at 10 µM,"[2]; BT-474, 10 µM, 72 h, read-out: inhibition of cell migration",50.6%
same,IC50,"[2]; BT-474, wound healing, read-out: IC50, cell migration",10.4 µM
same,inhibition at 3 µM,"[3]; SKBR3, 3 µM, 72 h, read-out: inhibition of cell migration",22.1%
same,inhibition at 6 µM,"[3]; SKBR3, 6 µM, 72 h, read-out: inhibition of cell migration",32.8%
same,inhibition at 10 µM,"[3]; SKBR3, 10 µM, 72 h, read-out: inhibition of cell migration",38.2%
same,inhibition at 20 µM,"[3]; SKBR3, 20 µM, 72 h, read-out: inhibition of cell migration",54.1%
same,IC50,"[3]; SKBR3, wound healing, read-out: IC50, cell migration",16.9 µM
same,early apoptotic population,[4],7.33%
same,late apoptosis (Annexin V+/PI+) cells,[4],14.59%
same,necrotic population,[4],2.84%
same,inhibition at 0.1 µM,[5],7%
same,inhibition at 0.1 µM,[6],> 80%
same,Mean inhibition (%),[6]; 0.1 µM,99%
same,inhibition at 0.1 µM,[7],> 80%
same,Mean inhibition (%),[7]; 0.1 µM,92%
same,inhibition at 0.1 µM,[8],7%
same,inhibition at 0.1 µM,[9],4%
same,inhibition at 0.1 µM,[10],0%
same,inhibition at 0.1 µM,[11],5%
same,inhibition at 0.1 µM,[12],7%
same,inhibition at 0.1 µM,[13],4%
same,inhibition at 0.1 µM,[14],2%
same,inhibition at 0.1 µM,[15],8%
